Measurements: patent US8247211B2, “Glycopeptide antibiotics” (American Cyanamid Company, priority 2001, dated 2012)
In brackets after ≈: the same amount, converted by molar mass.

Tests used:
Streptococcus sp. = test: In vitro antibacterial evaluation: minimum inhibitory concentration (MIC), broth dilution method; format: cell-based; conditions: 18 hours at 35° C.
Outline: (§1)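 Test strains, among them recent clinical isolates carrying methicillin, penicillin and/or vancomycin resistance, were inoculated at 5×10^5 CFU/mL. A broth dilution series spanning 64-0.06 μg/mL in Muller-Hinton II […] (NCCLS M7-A2) defined the MIC as the lowest growth-inhibiting concentration.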

Enterococcus sp. = test: as above; format: cell-based; conditions: 18 hours at 35° C.
Outline: as §1

Staphylococcus sp. = test: as above; format: cell-based; conditions: 18 hours at 35° C.
Outline: as §1

Escherichia coli = test: as above; format: cell-based; conditions: 18 hours at 35° C.
Outline: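 Values are minimum inhibitory concentrations, meaning the smallest antibiotic concentration that stops growth of the organism. They come from broth dilution in Muller-Hinton II […] per NCCLS guidance (M7-A2), using 5×10^5 CFU/mL and concentrations from 64 to 0.06 μg/mL.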

[1] = test system: Staphylococcus aureus-SMITH (GC 4543); test: Acute lethal infection in mice (ED50); format: in vivo; conditions: female CD-1 mice, intraperitoneal challenge, intravenous dose 30 min. after infection, 7 day survival ratios
Outline: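 IP bacterial challenge, female CD-1 mice; inoculum lethal to untreated controls in 24-48 hr. IV dosing in saline or 5% dextrose 30 min post-infection, 5 mice/dose. ED50 from 7-day survival, 3 tests pooled.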

[2] = Streptococcus pneumoniae (ATCC 6301)
[3] = Streptococcus pneumoniae (GC 1894)
[4] = Streptococcus pyogenes (GC 4563)
[5] = broth dilution, inoculum 5×10^5 CFU/mL
[6] = Enterococcus faecalis (ATCC 29212)
[7] = Enterococcus faecalis (GC 2242)
[8] = Enterococcus faecalis (GC 2691)
[9] = Enterococcus faecalis (GC 3059)
[10] = Enterococcus faecalis (GC 4552)
[11] = Enterococcus faecalis (GC 4553)
[12] = Enterococcus faecalis (GC 4554)
[13] = Enterococcus faecalis (GC 6189)

## CC(c1ccccc1)C1NC(=O)CNC(=O)C(CO)NC(=O)C(C(O)C2CNC(=N)N2C2OC(CO)C(O)C(O)C2O)NC(=O)C(C(O)C2CNC(=N)N2)NC(=O)C(Cc2ccc(OC3OC(CO)C(OC4OC(CO)C(OCc5ccc(OCc6ccccc6)cc5)C(O)C4O)C(O)C3O)cc2)NC1=O (stereo not drawn) [Example 231a, Cyclo[glycyl-β-methylphenylalanyl-O-[4-O-[4-O-[4-(phenylmethoxy)benzyl]hexopyranosyl]-hexopyranosyl]tyrosyl-3-(2-iminoimidazolidin-4-yl)seryl-3-(3-hexopyranosyl-2-iminoimidazolidin-4-yl)serylseryl]]
Streptococcus sp.; Streptococcus agalactiae (GC 4564)
  MIC Streptococcus agalactiae (GC 4564): <0.06 µg/mL
Streptococcus sp.; [2]
  MIC Streptococcus pneumoniae (ATCC 6301): <0.06 µg/mL
Streptococcus sp.; [3]
  MIC Streptococcus pneumoniae (GC 1894): <0.06 µg/mL
Streptococcus sp.; Streptococcus pneumoniae (GC 4565)
  MIC Streptococcus pneumoniae (GC 4565): <0.06 µg/mL
Streptococcus sp.; [4]
  MIC Streptococcus pyogenes (GC 4563): <0.06 µg/mL
Streptococcus sp.; [5]
  MIC Streptococcus agalactiae (GC 4564): <0.06 µg/mL
  MIC Streptococcus pneumoniae (ATCC 6301): <0.06 µg/mL
  MIC Streptococcus pneumoniae (GC 1894): <0.06 µg/mL
  MIC Streptococcus pneumoniae (GC 4565): <0.06 µg/mL
  MIC Streptococcus pyogenes (GC 4563): <0.06 µg/mL
Enterococcus sp.; Enterococcus avium (GC 4558)
  MIC Enterococcus avium (GC 4558): 2 µg/mL (≈ 1.34 µM)
Enterococcus sp.; [6]
  MIC Enterococcus faecalis (ATCC 29212): 2 µg/mL (≈ 1.34 µM)
Enterococcus sp.; [7]
  MIC Enterococcus faecalis (GC 2242): 2 to 4 µg/mL
Enterococcus sp.; [8]
  MIC Enterococcus faecalis (GC 2691): 2 µg/mL (≈ 1.34 µM)
Enterococcus sp.; [9]
  MIC Enterococcus faecalis (GC 3059): 1 to 2 µg/mL
Enterococcus sp.; [10]
  MIC Enterococcus faecalis (GC 4552): 4 µg/mL (≈ 2.68 µM)
Enterococcus sp.; [11]
  MIC Enterococcus faecalis (GC 4553): 4 µg/mL (≈ 2.68 µM)
Enterococcus sp.; [12]
  MIC Enterococcus faecalis (GC 4554): 4 µg/mL (≈ 2.68 µM)
Enterococcus sp.; [13]
  MIC Enterococcus faecalis (GC 6189): 1 to 2 µg/mL
Enterococcus sp.; Enterococcus faecium (GC 2243)
  MIC Enterococcus faecium (GC 2243): 2 µg/mL (≈ 1.34 µM)
Enterococcus sp.; Enterococcus faecium (GC 4556)
  MIC Enterococcus faecium (GC 4556): 2 to 4 µg/mL
Enterococcus sp.; Enterococcus faecium (GC 4557)
  MIC Enterococcus faecium (GC 4557): 2 µg/mL (≈ 1.34 µM)
Enterococcus sp.; [5]
  MIC Enterococcus avium (GC 4558): 2 µg/mL (≈ 1.34 µM)
  MIC Enterococcus faecalis (ATCC 29212): 2 µg/mL (≈ 1.34 µM)
  MIC Enterococcus faecalis (GC 2242): 2 to 4 µg/mL
  MIC Enterococcus faecalis (GC 2691): 2 µg/mL (≈ 1.34 µM)
  MIC Enterococcus faecalis (GC 3059): 1 to 2 µg/mL
  MIC Enterococcus faecalis (GC 4552): 4 µg/mL (≈ 2.68 µM)
  MIC Enterococcus faecalis (GC 4553): 4 µg/mL (≈ 2.68 µM)
  MIC Enterococcus faecalis (GC 4554): 4 µg/mL (≈ 2.68 µM)
  MIC Enterococcus faecalis (GC 6189): 1 to 2 µg/mL
  MIC Enterococcus faecium (GC 2243): 2 µg/mL (≈ 1.34 µM)
  MIC Enterococcus faecium (GC 4556): 2 to 4 µg/mL
  MIC Enterococcus faecium (GC 4557): 2 µg/mL (≈ 1.34 µM)
Staphylococcus sp.
  MIC Coagulase Negative Staphylococcus (GC 4547): 1 µg/mL (≈ 0.67 µM)
  MIC Coagulase Negative Staphylococcus (GC 4551): 0.5 µg/mL (≈ 0.335 µM)
  MIC Staphylococcus aureus (ATCC 29213): 1 to 2 µg/mL
  MIC Staphylococcus aureus (GC 1131): 1 to 2 µg/mL
  MIC Staphylococcus aureus (GC 3051): 1 µg/mL (≈ 0.67 µM)
  MIC Staphylococcus aureus (GC 3053): 1 to 2 µg/mL
  MIC Staphylococcus aureus (GC 4541): 1 to 2 µg/mL
  MIC Staphylococcus aureus (GC 4542): 0.5 to 1 µg/mL
  MIC Staphylococcus aureus (GC 4544): 2 to 4 µg/mL
  MIC Staphylococcus aureus (GC 4545): 1 to 2 µg/mL
  MIC Staphylococcus aureus-SMITH (GC 4543): 1 µg/mL (≈ 0.67 µM)
Staphylococcus sp.; Coagulase Negative Staphylococcus (GC 6257)
  MIC Coagulase Negative Staphylococcus (GC 6257): 0.5 µg/mL (≈ 0.335 µM)
Staphylococcus sp.; Staphylococcus haemolyticus (GC 4546)
  MIC Staphylococcus haemolyticus (GC 4546): 1 µg/mL (≈ 0.67 µM)
Escherichia coli; Escherichia coli (GC 4559)
  MIC Escherichia coli (GC 4559): 32 µg/mL (≈ 21.5 µM)
Escherichia coli
  MIC Escherichia coli (GC 4560): 0.5 to 2 µg/mL
[1]
  median effective dose (ED50), Staphylococcus aureus-SMITH (GC 4543): 0.06 mg/kg

## CCCOc1ccc(COCC2OC(OC3C(CO)OC(Oc4ccc(CC5NC(=O)C(C(C)c6ccccc6)NC(=O)CNC(=O)C(CO)NC(=O)C(C(O)C6CNC(=N)N6C6OC(CO)C(O)C(O)C6O)NC(=O)C(C(O)C6CNC(=N)N6)NC5=O)cc4)C(O)C3O)C(O)C(O)C2O)cc1 (stereo not drawn) [Example 235, Cyclo[glycyl-β-methylphenylalanyl-O-[4-O-[6-O-(4-propoxybenzyl)hexopyranosyl]hexopyranosyl]tyrosyl-3-(2-iminoimidazolidin-4-yl)seryl-3-(3-hexopyranosyl-2-iminoimidazolidin-4-yl)serylseryl]]
Streptococcus sp.; [2]
  MIC Streptococcus pneumoniae (ATCC 6301): 0.12 µg/mL (≈ 0.0831 µM)
Streptococcus sp.; [3]
  MIC Streptococcus pneumoniae (GC 1894): <0.06 µg/mL
Streptococcus sp.; [4]
  MIC Streptococcus pyogenes (GC 4563): 0.25 µg/mL (≈ 0.173 µM)
Streptococcus sp.; [5]
  MIC Streptococcus pneumoniae (ATCC 6301): 0.12 µg/mL (≈ 0.0831 µM)
  MIC Streptococcus pneumoniae (GC 1894): <0.06 µg/mL
  MIC Streptococcus pyogenes (GC 4563): 0.25 µg/mL (≈ 0.173 µM)
Enterococcus sp.; Enterococcus avium (GC 4558)
  MIC Enterococcus avium (GC 4558): 4 µg/mL (≈ 2.77 µM)
Enterococcus sp.; [6]
  MIC Enterococcus faecalis (ATCC 29212): 4 µg/mL (≈ 2.77 µM)
Enterococcus sp.; [7]
  MIC Enterococcus faecalis (GC 2242): 4 µg/mL (≈ 2.77 µM)
Enterococcus sp.; [8]
  MIC Enterococcus faecalis (GC 2691): 4 µg/mL (≈ 2.77 µM)
Enterococcus sp.; [9]
  MIC Enterococcus faecalis (GC 3059): 4 to 8 µg/mL
Enterococcus sp.; [10]
  MIC Enterococcus faecalis (GC 4552): 4 µg/mL (≈ 2.77 µM)
Enterococcus sp.; [11]
  MIC Enterococcus faecalis (GC 4553): 4 µg/mL (≈ 2.77 µM)
Enterococcus sp.; [12]
  MIC Enterococcus faecalis (GC 4554): 4 to 8 µg/mL
Enterococcus sp.; [13]
  MIC Enterococcus faecalis (GC 6189): 4 µg/mL (≈ 2.77 µM)
Enterococcus sp.; Enterococcus faecium (GC 2243)
  MIC Enterococcus faecium (GC 2243): 4 µg/mL (≈ 2.77 µM)
Enterococcus sp.; Enterococcus faecium (GC 4556)
  MIC Enterococcus faecium (GC 4556): 4 µg/mL (≈ 2.77 µM)
Enterococcus sp.; Enterococcus faecium (GC 4557)
  MIC Enterococcus faecium (GC 4557): 0.5 to 2 µg/mL
Enterococcus sp.; [5]
  MIC Enterococcus faecalis (GC 2242): 4 µg/mL (≈ 2.77 µM)
  MIC Enterococcus faecalis (GC 2691): 4 µg/mL (≈ 2.77 µM)
  MIC Enterococcus faecalis (GC 3059): 4 to 8 µg/mL
Staphylococcus sp.
  MIC Coagulase Negative Staphylococcus (GC 4547): 0.5 to 1 µg/mL
  MIC Coagulase Negative Staphylococcus (GC 4551): 0.5 to 1 µg/mL
  MIC Staphylococcus aureus (ATCC 29213): 0.5 to 1 µg/mL
  MIC Staphylococcus aureus (GC 1131): 1 to 2 µg/mL
  MIC Staphylococcus aureus (GC 3051): 0.5 to 2 µg/mL
  MIC Staphylococcus aureus (GC 3053): 1 to 2 µg/mL
  MIC Staphylococcus aureus (GC 4541): 0.5 to 1 µg/mL
  MIC Staphylococcus aureus (GC 4542): 0.5 to 2 µg/mL
  MIC Staphylococcus aureus (GC 4544): 1 to 2 µg/mL
  MIC Staphylococcus aureus (GC 4545): 1 to 2 µg/mL
  MIC Staphylococcus aureus-SMITH (GC 4543): 0.5 to 1 µg/mL
Escherichia coli
  MIC Escherichia coli (GC 4560): 0.5 to 1 µg/mL
[1]
  median effective dose (ED50), Staphylococcus aureus-SMITH (GC 4543): 0.59 mg/kg
